The values below come from patent US8609672B2, “Piperazinylpyrimidine analogues as protein kinase inhibitors” (University of the Pacific, priority 2010, dated 2013).

Bounds are passed on as bounds.

In the first series the target is KIT (Homo sapiens, UniProt P10721). The following applies: KIT wild-type; reference kinase inhibitors, from literature; cited from earlier work.
Chain of KIT (P10721 26-976): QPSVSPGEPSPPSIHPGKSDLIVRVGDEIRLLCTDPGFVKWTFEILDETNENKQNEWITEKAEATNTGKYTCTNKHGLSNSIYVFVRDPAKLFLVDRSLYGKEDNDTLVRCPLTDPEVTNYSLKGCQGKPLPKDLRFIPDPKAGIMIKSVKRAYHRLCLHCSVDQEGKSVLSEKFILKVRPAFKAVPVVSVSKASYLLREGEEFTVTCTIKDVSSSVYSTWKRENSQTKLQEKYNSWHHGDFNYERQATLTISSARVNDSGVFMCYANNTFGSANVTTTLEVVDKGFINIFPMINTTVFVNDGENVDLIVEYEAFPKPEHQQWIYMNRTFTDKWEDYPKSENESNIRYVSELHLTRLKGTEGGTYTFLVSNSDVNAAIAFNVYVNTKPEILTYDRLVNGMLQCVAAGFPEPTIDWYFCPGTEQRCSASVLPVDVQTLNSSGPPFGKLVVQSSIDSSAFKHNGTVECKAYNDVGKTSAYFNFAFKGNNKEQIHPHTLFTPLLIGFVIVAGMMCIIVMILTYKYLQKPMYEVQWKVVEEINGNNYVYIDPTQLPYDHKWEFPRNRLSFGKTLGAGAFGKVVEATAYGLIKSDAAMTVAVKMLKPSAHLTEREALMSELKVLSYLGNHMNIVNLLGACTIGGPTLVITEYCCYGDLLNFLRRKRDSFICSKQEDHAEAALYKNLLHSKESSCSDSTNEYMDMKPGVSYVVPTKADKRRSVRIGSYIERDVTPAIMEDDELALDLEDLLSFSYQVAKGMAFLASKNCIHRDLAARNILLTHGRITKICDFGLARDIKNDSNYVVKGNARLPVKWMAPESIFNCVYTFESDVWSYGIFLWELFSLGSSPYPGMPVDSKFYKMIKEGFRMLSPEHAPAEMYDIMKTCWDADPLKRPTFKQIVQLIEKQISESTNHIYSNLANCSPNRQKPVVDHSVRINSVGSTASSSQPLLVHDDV
By Kd is commonly meant the equilibrium constant for the complex coming apart. As for `COCC(=O)NC/C=C/c1ccc2ncnc(Nc3ccc(Oc4ccc(C)nc4)c(C)c3)c2c1` [CP-724714], the dissociation constant Kd was above 10000 nM.

In the case of `CCOc1cc2ncc(C#N)c(Nc3ccc(F)c(Cl)c3)c2cc1NC(=O)/C=C/CN(C)C` [EKB-569], the Kd was above 10000 nM.

Turning to `Oc1ccc(-c2nc(-c3ccc(F)cc3)c(-c3ccncc3)[nH]2)cc1` [SB-202190], the Kd is above 10000 nM.

The same series, now with this note: cited from earlier work.
For `NC(=O)c1ccc(-c2nc(-c3ccccn3)c(-c3ccc4c(c3)OCO4)[nH]2)cc1` [SB-431542], the Kd was above 10000 nM.

Test system in the next series: not given
Conditions: not given
As a reminder, the melting point is the temperature of the solid-liquid transition. With `CCc1cnc(N2CCN(c3ncnc4ccccc34)CC2)nc1` [Compound 3, 4-(4-(5-ethylpyrimidin-2-yl)piperazin-1-yl)quinazoline], the melting point was above 250 °C.

`CCc1cnc(N2CCN(c3nc(-c4ccccc4)nc4ccccc34)CC2)nc1` [Compound 5, 4-(4-(5-ethylpyrimidin-2-yl)piperazin-1-yl)-2-phenylquinazoline] returned a melting point of 137 to 138 °C.

As to `c1ccc(Cc2cnc(N3CCN(c4nc(-c5ccccc5)nc5ccccc45)CC3)nc2)cc1` [Compound 6, 4-(4-(5-benzylpyrimidin-2-yl)piperazin-1-yl)-2-phenylquinazoline], the melting point was 135 to 137 °C.

The compound `CCc1cnc(N2CCN(C(=O)c3cccc(Nc4ncnc5ccccc45)c3)CC2)nc1` [Compound 13, (4-(5-ethylpyrimidin-2-yl)piperazin-1-yl)(3-(quinazolin-4-ylamino)phenyl)methanone] had a melting point of 146 to 147 °C.

`CCc1cnc(N2CCN(C(=O)c3ccc(Nc4ncnc5ccccc45)cc3)CC2)nc1` [Compound 14, (4-(5-ethylpyrimidin-2-yl)piperazin-1-yl)(4-(quinazolin-4-ylamino)phenyl)methanone] registered a melting point of 248 to 249 °C.

Regarding `O=C(c1ccc(Nc2ncnc3ccccc23)cc1)N1CCN(c2ncc(Cc3ccccc3)cn2)CC1` [Compound 17, (4-(5-benzylpyrimidin-2-yl)piperazin-1-yl)(4-(quinazolin-4-ylamino)phenyl)methanone], the melting point lay within 245 to 247 °C.

`O=C(c1ccc(CNc2ncnc3ccccc23)cc1)N1CCN(c2ncc(Cc3ccccc3)cn2)CC1` [Compound 18, (4-(5-benzylpyrimidin-2-yl)piperazin-1-yl)(4-((quinazolin-4-ylamino)methyl)phenyl)methanone] came in with a melting point of 99 to 101 °C.

`CCc1cnc(N2CCN(C(=O)c3ccccc3NC3=c4ccccc4=NCN3c3ccccc3)CC2)nc1` [Compound 19, (4-(5-ethylpyrimidin-2-yl)piperazin-1-yl)(2-(3-phenylquinazolin-4-ylamino)phenyl)methanone]: the melting point fell in the range of 204 to 205 °C.

`CCc1cnc(N2CCN(C(=O)c3ccccc3NC3(c4ccccc4)NC=Nc4ccccc43)CC2)nc1` (centres unmarked) [Compound 20, (4-(5-ethylpyrimidin-2-yl)piperazin-1-yl)(2-(4-phenylquinazolin-4-ylamino)phenyl)methanone] came in with a melting point above 250 °C.

The compound `CCc1cnc(N2CCN(C(=O)c3ccc(CNc4nc(-c5ccccc5)nc5ccccc45)cc3)CC2)nc1` [Compound 21, (4-(5-ethylpyrimidin-2-yl)piperazin-1-yl)(4-((2-phenylquinazolin-4ylamino)methyl)phenyl)methanone] returned a melting point of 207 to 208 °C.

`O=C(c1cccc(Nc2nc(-c3ccccc3)nc3ccccc23)c1)N1CCN(c2ncc(Cc3ccccc3)cn2)CC1` [Compound 22, (4-(5-benzylpyrimidin-2-yl)piperazin-1-yl)(3-(2-phenylquinazolin-4ylamino)phenyl)methanone]: the melting point lay within 214 to 215 °C.

In turn, `O=C(c1ccc(Nc2nc(-c3ccccc3)nc3ccccc23)cc1)N1CCN(c2ncc(Cc3ccccc3)cn2)CC1` [Compound 23, (4-(5-benzylpyrimidin-2-yl)piperazin-1-yl)(4-(2-phenylquinazolin-4ylamino)phenyl)methanone] returned a melting point above 250 °C.

Consider `O=C(c1ccc(CNc2nc(-c3ccccc3)nc3ccccc23)cc1)N1CCN(c2ncc(Cc3ccccc3)cn2)CC1` [Compound 24, (4-(5-benzylpyrimidin-2-yl)piperazin-1-yl)(4-((2-phenylquinazolin-4-ylamino)methyl)phenyl)methanone], for which the melting point fell in the range of 216 to 217 °C.
